From patent US7723358B2, “Aroyl-O-piperidine derivatives for the treatment of diabetes-related problems” (Merck Patent GmbH, priority 2004, dated 2010)

target: T1, microsomal triglyceride transfer protein (MTP) (Mesocricetus auratus, UniProt P55158); experiment: Inhibition of MTP activity: transfer of [3H]-triolein from donor liposomes to biotinylated LDL, SPA; assay type: biochemical; conditions: MTP from golden hamster liver; incubation 18-24 hours at 37° C.; read-out: IC50, concentration that allows a 50% inhibition of MTP
T1 construct: The supernatant comprising the soluble MTP is dialysed against Tris/HCl 150 mM; from tissue; host or cells: golden hamster liver microsomes, deoxycholate-solubilised supernatant, dialysed
T1 sequence (P55158 19-895): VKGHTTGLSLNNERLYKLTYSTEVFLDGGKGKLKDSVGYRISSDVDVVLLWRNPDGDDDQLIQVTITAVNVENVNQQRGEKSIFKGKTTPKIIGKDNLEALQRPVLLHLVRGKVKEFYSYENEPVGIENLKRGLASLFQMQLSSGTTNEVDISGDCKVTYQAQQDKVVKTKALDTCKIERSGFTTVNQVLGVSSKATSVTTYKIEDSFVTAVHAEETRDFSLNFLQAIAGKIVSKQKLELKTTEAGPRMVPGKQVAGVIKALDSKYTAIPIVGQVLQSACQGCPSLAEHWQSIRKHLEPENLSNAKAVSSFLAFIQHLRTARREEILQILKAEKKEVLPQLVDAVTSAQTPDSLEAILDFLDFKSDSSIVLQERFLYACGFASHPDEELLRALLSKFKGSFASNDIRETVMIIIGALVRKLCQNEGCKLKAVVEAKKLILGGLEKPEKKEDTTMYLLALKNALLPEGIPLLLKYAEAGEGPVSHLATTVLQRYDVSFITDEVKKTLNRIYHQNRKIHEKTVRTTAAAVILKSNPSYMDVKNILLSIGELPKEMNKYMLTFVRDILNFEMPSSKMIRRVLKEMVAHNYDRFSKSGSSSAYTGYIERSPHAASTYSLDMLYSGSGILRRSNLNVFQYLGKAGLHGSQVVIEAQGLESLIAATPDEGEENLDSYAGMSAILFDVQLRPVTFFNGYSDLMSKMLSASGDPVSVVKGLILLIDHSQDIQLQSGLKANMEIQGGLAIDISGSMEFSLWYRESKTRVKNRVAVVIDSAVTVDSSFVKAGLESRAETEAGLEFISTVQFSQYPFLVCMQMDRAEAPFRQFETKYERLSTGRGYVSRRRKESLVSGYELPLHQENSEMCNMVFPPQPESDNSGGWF
Method: Analysis of the Inhibition of MTP Activity
The inhibition of the activity of microsomal triglyceride transfer protein (MTP) was tested by using the following operating protocol.
The inhibition of MTP activity with a compound can be quantified by observing the inhibition of the transfer of a labelled triglyceride, from a donor particle to an acceptor particle, in the presence of MTP. The procedure for the preparation of MTP is based on the method by Wetterau and Zilversmit (Biochem. Biophys. Acta (1986) 875, 610). A few grams of golden hamster liver are taken and then rinsed several times in a 250 mM sucrose solution at 0° C. All the following steps proceed at +4° C. A homogenate at a concentration of 50% in 250 mM sucrose is prepared using a Teflon mill and then centrifuged for 10 minutes at 10 000×g at +4° C. The supernatant is then centrifuged at 105 000×g for 75 minutes at +4° C. The supernatant is discarded and the microsomal pellet is taken up in 3 ml (per g of starting liver) of Tris/HCl 150 mM pH 8.0. 1-ml aliquot fractions are stored at −80° C. until the time of use.
After thawing a fraction of microsomes (1 ml), 12 ml of refrigerated Tris/HCl 50 mM, KCl 50 mM, MgCl2 5 mM pH 7.4 buffers and 1.2 ml of deoxycholate (0.54% in water) are added. After incubation for 30 minutes at +4° C. with gentle agitation, the suspension is centrifuged at 105 000×g for 75 minutes. The supernatant comprising the soluble MTP is dialysed against Tris/HCl 150 mM, NaCl 40 mM, EDTA 1 mM, 0.02% sodium azide pH 7.4 buffer (5 times one litre over 2-3 days). The MTP is stored at +4° C., is stable for at least 30 days and is used in unmodified form in the test.
The donor particles (liposomes) are prepared from 208 μl of L-phosphatidylcholine at a concentration of 10 mg/ml in chloroform, and 480 μl of [3H]-triolein at a concentration of 0.5 mCi/ml in toluene. After stirring, the solution is evaporated under nitrogen, taken up in 6 ml of Tris/HCl 50 mM, KCl 50 mM, MgCl2 5 mM pH 7.4 buffer and incubated in an ultrasound bath for 30 minutes at room temperature. The liposomes are stored at +4° C. and sonicated again for 10 minutes before each use.
The acceptor particles are biotinylated low density lipoproteins (LDL-biot). These particles are supplied by the company Amersham.
The reaction mixture is prepared in untreated ½ well white plates (Corning Costar) by addition, in the following order, of: 5 μl of HEPES 50 mM, NaCl 150 mM, BSA 0.1% (w/v), 0.05% sodium azide (w/v), pH 7.4 buffer; 5 μl of liposome; 5 μl of LDL-biot; 5 μl of test products in DMSO; 5 μl of MTP. After incubation for 18-24 hours at 37° C., the reaction is stopped by adding 100 μl of Amersham SPA (Scintillation Proximity Assay) beads coupled to streptavidin, and the radioactivity is counted using a Top Count (Packard) machine at least one hour later. The inhibition of the transfer of the triglycerides with a compound is reflected by a reduction in the transferred radioactivity.
The results are expressed in terms of the IC50, i.e. the concentration that allows a 50% inhibition of MTP.

Row | Structure (SMILES) | IC50 [nM]
1 | CCOC(=O)CCCCCNC(=O)N1CCC(Oc2cccc(NC(=O)c3cccc(C)c3-c3ccc(OC(F)(F)F)cc3)c2)CC1 [Example 45, ethyl 6-[[[4-[3-[[[6-methyl-4′-(trifluorometh-oxy)[1,1′-biphenyl]-2-yl]carbonyl]amino]-phenoxy]-1-piperidinyl]carbonyl]amino]-hexanoate] | 779
2 | Cc1cccc(C(=O)Nc2cccc(OC3CCN(C(=O)c4cccnc4)CC3)c2)c1-c1ccc(OC(F)(F)F)cc1 [Example 106, 6-methyl-N-[3-[[1-(3-pyridinylcarbonyl)-4-piperidinyl]oxy]phenyl]-4′-(trifluorometh-oxy)[1,1′-biphenyl]-2-carboxamide] | 182
3 | C/C=C/C(=O)N1CCC(Oc2cccc(NC(=O)c3ccccc3-c3ccc(OC(F)(F)F)cc3)c2)CC1 [Example 137, N-[3-[[1-[(2E)-1-oxo-2-butenyl]-4-piperi-dinyl]oxy]phenyl]-4′-(trifluoromethoxy)-[1,1′-biphenyl]-2-carboxamide] | 209
4 | COc1ccc(C(=O)N2CCC(Oc3cccc(NC(=O)c4ccccc4-c4ccc(OC(F)(F)F)cc4)c3)CC2)cc1OC [Example 104] | 294
5 | Cc1cccc(C(=O)Nc2cccc(OC3CCN(Cc4cc5ccccc5o4)CC3)c2)c1-c1ccc(OC(F)(F)F)cc1 [Example 60, N-[3-[[1-(2-benzofuranylmethyl)-4-piperi-dinyl]oxy]phenyl]-6-methyl-4′-(trifluoro-methoxy)-[1,1′-biphenyl]-2-carboxamide] | 240
6 | Cc1cccc(C(=O)Nc2cccc(OC3CCN(C(=O)c4ccccc4)CC3)c2)c1-c1ccc(OC(F)(F)F)cc1 [Example 143, N-[3-[(1-benzoyl-4-piperidinyl)oxy]phenyl]-6-methyl-4′-(trifluoromethoxy)[1,1′-biphenyl]-2-carboxamide] | 118
7 | Cc1ccc(C(=O)N2CCC(Oc3cccc(NC(=O)c4ccccc4-c4ccc(OC(F)(F)F)cc4)c3)CC2)cc1 [Example 130, N-[3-[[1-(4-methylbenzoyl)-4-piperidinyl]-oxy]phenyl]-4′-(trifiuoromethoxy)[1,1′-biphenyl]-2-carboxamide] | 219
8 | CC(=O)OCC(=O)N1CCC(Oc2cccc(NC(=O)c3ccccc3-c3ccc(OC(F)(F)F)cc3)c2)CC1 [Example 126, N-[3-[[1-[2-(acetyloxy)acetyl]-4-piperidin-yl]oxy]phenyl]-4′-(trifluoromethoxy)[1,1′-biphenyl]-2-carboxamide] | 91.2
9 | COC(=O)[C@@H](NC(=O)N1CCC(Oc2cccc(NC(=O)c3cccc(C)c3-c3ccc(OC(F)(F)F)cc3)c2)CC1)C(C)C [Example 49, methyl N-[[4-[3-[[[6-methyl-4′-(trifluoro-methoxy)[1,1′-biphenyl]-2-yl]carbonyl]-amino]phenoxy]-1-piperidinyl]carbonyl]-L-valinate] | 551
10 | O=C(Nc1cccc(OC2CCN(C(=O)c3ccccc3)CC2)c1)c1ccccc1-c1ccc(OC(F)(F)F)cc1 [Example 119, N-[3-[(1-benzoyl-4-piperidinyl)oxy]phenyl]-4′-(trifluoromethoxy)[1,1′-biphenyl]-2-carboxamide] | 661
11 | CCCCNC(=O)N1CCC(Oc2cccc(NC(=O)c3cccc(C)c3-c3ccc(OC(F)(F)F)cc3)c2)CC1 [Example 33, N-butyl-4-[3-[[[6-methyl-4′-(trifluorometh-oxy)[1,1′-biphenyl]-2-yl]carbonyl]amino]-phenoxy]-1-piperidinecarboxamide] | 114
12 | COCCOc1ccc(-c2ccccc2C(=O)Nc2cccc(OC3CCN(C(=O)OC(C)(C)C)CC3)c2)cc1 [Example 90, 1,1-dimethylethyl 4-[3-[[[4′-(2-methoxy-ethoxy)[1,1-biphenyl]-2-yl]carbonyl]-amino]phenoxy]-1-piperidinecarboxylate] | 392
13 | CC(C)(C)C(=O)N1CCC(Oc2cccc(NC(=O)c3ccccc3-c3ccc(OC(F)(F)F)cc3)c2)CC1 [Example 140, N-[3-[[1-(2,2-dimethyl-1-oxopropyl)-4-piperidinyl]oxy]phenyl]-4′-(trifluorometh-oxy)[1,1′-biphenyl]-2-carboxamide] | 176

Further lines, results first:

Row | IC50 [nM] | Structure (SMILES)
14 | 111 | Cc1cccc(C(=O)Nc2cccc(OC3CCN(C(=O)Nc4ccc(N(C)C)cc4)CC3)c2)c1-c1ccc(OC(F)(F)F)cc1 [Example 51, N-[4-(dimethylamino)phenyl]-4-[3-[[[6-methyl-4′-(trifluoromethoxy)[1,1′-biphenyl]-2-yl]carbonyl]amino]phenoxy]-1-piperidinecarboxamide]
15 | 119 | Cc1ccccc1NC(=O)N1CCC(Oc2cccc(NC(=O)c3cccc(C)c3-c3ccc(OC(F)(F)F)cc3)c2)CC1 [Example 62, N-(2-methylphenyl)-4-[3-[[[6-methyl-4′-(trifluoromethoxy)[1,1′-biphenyl]-2-yl]-carbonyl]amino]phenoxy]-1-piperidine-carboxamide]
16 | 367 | Cc1cccc(C(=O)Nc2cccc(OC3CCN(C(=O)Nc4ccc(F)cc4)CC3)c2)c1-c1ccc(OC(F)(F)F)cc1 [Example 25, N-(4-fluorophenyl)-4-[3-[[[6-methyl-4′-(trifluoromethoxy)[1,1′-biphenyl]-2-yl]-carbonyl]amino]phenoxy]-1-piperidine-carboxamide]
17 | 382 | Cc1cccc(C(=O)Nc2cccc(OC3CCN(Cc4ccc(N(C)C)cc4)CC3)c2)c1-c1ccc(OC(F)(F)F)cc1 [Example 84, N-[3-[[1-[[4-(dimethylamino)phenyl]-methyl]-4-piperidinyl]oxy]phenyl]-6-methyl-4′-(trifluoromethoxy)[1,1′-biphenyl]-2-carboxamide]
18 | 201 | COC(=O)c1cccc(NC(=O)N2CCC(Oc3cccc(NC(=O)c4cccc(C)c4-c4ccc(OC(F)(F)F)cc4)c3)CC2)c1 [Example 43, methyl 3-[[[4-[3-[[[6-methyl-4′-(trif1uoro-methoxy)[1,1′-biphenyl]-2-yl]carbonyl]-amino]phenoxy]-1-piperidinyl]carbonyl]-amino]benzoate]
19 | 459 | Cc1cccc(C(=O)Nc2cccc(OC3CCN(C(=O)Nc4cccc(C(F)(F)F)c4)CC3)c2)c1-c1ccc(OC(F)(F)F)cc1 [Example 24, 4-[3-[[[6-methyl-4-(trifluoromethoxy)[1,1′-4-biphenyl]-2-yl]carbonyl]amino]phenoxy]-N-[3-(trifluoromethyl)phenyl]-1-piperidine-carboxamide]
